According to patent US8088799B2, “Pharmaceutical composition comprising a sodium hydrogen exchange inhibitor and an angiotensin converting enzyme inhibitor” (Sanofi-Aventis Deutschland GmbH, priority 2002, dated 2012):
Entries after “also recorded” stand apart in the source; their conditions may differ.

Assays:
[1] = test system: hearts of old spontaneously hypertensive rats; experiment: Interim analysis 3 months after start of treatment: heart function, myocardial fibrosis (Hyp/Arg), heart weight; type: in vivo, rat; conditions: 7 animals per group; for Force of myocardial contraction / function of the heart: compared with placebo control hearts, 3 months after start of treatment
Experimental: (§1) The pharmacological model of spontaneously hypertensive rat is generally accepted to be representative of human essential hypertony. In each experimental group initially 27 18-months old rats were employed. 3 months after the start of treatment, when the number of surviving animals in the placebo control group was only 7, an interim analysis was carried out on 7 animals from each group.
(§2) In the experiment old hypertensive rats (age: 18 months) were treated with the NHE inhibitor cariporide or with a subthreshold dose of ramipril with no lowering effect on the blood pressure or with a combination of both substances. For each of the four treatments 27 18-month old rats were employed. A daily dose of 400 mg of cariporide per kg body weight (0.6% cariporide in standard rat feed) and 10 μg ramipril per kg body weight (in the drinking water) were given. 3 months after the start of treatment, when the number of surviving animals in the placebo control group was only 7, an interim analysis was carried out on 7 animals from each group. The remaining, still living rats per group were continuously treated as mentioned above since they were 18 months old.
As mentioned above, 3 months after the start of treatment, when the number of surviving animals in the placebo control group was only 7, an interim analysis was carried out on 7 animals from each group. The weight of the complete heart and the weight of the left and right ventricle were measured. Just so, the molar ratio of hydroxyproline and ariginine in the heart tissues was measured (measured via HPLC), which is a marker for the myocardial fibrosis. […] Hyp/Arg is the ratio of hydroxyproline to arginine and is regarded as a fibrosis marker.
These effects are also reflected in the weights of the hearts (FIG. 3).

[2] = test system: spontaneously hypertensive rats (SHR); experiment: Survival rate of old spontaneously hypertensive rats under late-onset treatment; type: in vivo, rat; parameters: key to Holm-adjusted log rank test of survival vs. Cariporide / Holm-adjusted log rank test of survival vs. Placebo: * indicates significant difference; n.s. = not significant; conditions: for Median survival time: time from start of treatment (18th month of life) at which survival rate reaches 50%, Kaplan-Meier estimate
Experimental: as §1
The effect of a ramipril and cariporide combination product on the survival rate of rats with genetically related hypertension was investigated.
as §2
Thus, in the determination of the survival time […] 18-month old rats were employed in each experimental group (table 1).
There are evidently distinct differences between placebo and product groups on the one hand and between the individual products and the combination after the experiment had lasted only 3-4 months.
The statistical analysis was carried out essentially using the SAS/STAT procedure LIFETEST [SAS Institute Inc. (1989): SAS/STAT User's Guide, Version 6, 4th Edition, Volume 2, Cary, N.C.; SAS Institute Inc.]. The log rank tests were carried out pairwise on the experimental groups and adjusted to obtain a multiple significance level of 5% according to Holm [S. Holm (1979): A Simple Sequentally Rejective Multiple Test Procedure; Scand. J. Statist.; 6, pp 65-70].

old normotensive rats = conditions: from WO 00/38661; cited from earlier work
[3] = test system: spontaneously hypertensive rats; conditions: known for some time; cited from earlier work
[4] = age 18 months (start of treatment), 20 rats per group, cariporide 400 mg/kg/day in feed, ramipril 10 μg/kg/day in drinking water
[5] = age 19 months, of 20 rats per group
[6] = age 20 months, of 20 rats per group
[7] = age 21 months, of 20 rats per group
[8] = age 22 months, of 20 rats per group
[9] = age 23 months, of 20 rats per group
[10] = age 24 months, of 20 rats per group
[11] = age 25 months, of 20 rats per group
[12] = age 26 months, of 20 rats per group
[13] = age 27 months, of 20 rats per group
[14] = age 28 months, of 20 rats per group
[15] = age 29 months, of 20 rats per group
[16] = pairwise comparison, multiple significance level of 5%

## CCOC(=O)[C@H](CCc1ccccc1)N[C@@H](C)C(=O)N1[C@H](C(=O)O)C[C@@H]2CCC[C@@H]21 [Ramipril, ramipril]
[1]
  Force of myocardial contraction / function of the heart: significant reduction in the force of myocardial contraction
[2]; [4]
  Number of surviving rats: 20
[2]; [5]
  Number of surviving rats: 18
[2]; [6]
  Number of surviving rats: 15
[2]; [7]
  Number of surviving rats: 11
[2]; [8]
  Number of surviving rats: 9
[2]; [9]
  Number of surviving rats: 4
[2]; [10]
  Number of surviving rats: 0
[2]; [11]
  Number of surviving rats: 0
[2]; [12]
  Number of surviving rats: 0
[2]; [13]
  Number of surviving rats: 0
[2]; [14]
  Number of surviving rats: 0
[2]; [15]
  Number of surviving rats: 0
[2]; [16]
  Holm-adjusted log rank test of survival vs. Cariporide: n.s.
  Holm-adjusted log rank test of survival vs. Placebo: *
[2]; result in words
  Survival rate compared with the placebo treatment: statistically significant improvement in the survival rate
[2]
  Median survival time: 4.0 months
Old normotensive rats
  Protective effect on pathological age-related organ changes: no protective effect at all
[3]
  Life span of spontaneously hypertensive rats: significantly prolongs the life span

## CC(C)c1ccc(C(=O)N=C(N)N)cc1S(C)(=O)=O.CS(=O)(=O)O [Cariporide, cariporide]
[1]; 3 months after start of late treatment
  Weight of the hearts: significantly smaller weights of the hearts
[1]; 3 months after start of late treatment, HPLC
  Myocardial fibrosis (Hyp/Arg ratio of hydroxyproline to arginine): significantly reduced; also recorded: possible for a preexisting fibrosis to be reduced
[1]
  Force of myocardial contraction / function of the heart: significantly improved the function of the heart
[2]; [4]
  Number of surviving rats: 20
[2]; [5]
  Number of surviving rats: 18
[2]; [6]
  Number of surviving rats: 16
[2]; [7]
  Number of surviving rats: 12
[2]; [8]
  Number of surviving rats: 8
[2]; [9]
  Number of surviving rats: 7
[2]; [10]
  Number of surviving rats: 7
[2]; [11]
  Number of surviving rats: 5
[2]; [12]
  Number of surviving rats: 0
[2]; [13]
  Number of surviving rats: 0
[2]; [14]
  Number of surviving rats: 0
[2]; [15]
  Number of surviving rats: 0
[2]; [16]
  Holm-adjusted log rank test of survival vs. Placebo: *
[2]; result in words
  Survival rate compared with the placebo treatment: statistically significant improvement in the survival rate
[2]; result in words, chosen significance level
  Difference in survival rates between cariporide and ramipril: No significant differences
[2]
  Median survival time: 4.0 months
